Assay results as given in patent US20060063932A1, “Aminoalkylpyrrolidine serotonin receptor ligands and compositions, their pharmaceutical uses, and methods for their synthesis” (priority 2000, published 2006).
Where two headings read alike, the source gives them in different places.

Key:
[1] = biological target: T1, human 5-HT7B (h5-HT7b) receptors (Homo sapiens, UniProt P34969); assay: Competition radioligand binding, h5-HT7b ([3H]5-CT); conditions: membranes of HEK 293 cells, 2 hr 37° C., read-out: Ki (nM) 5-HT7
T1 construct: expressed in transfected cells

[2] = biological target: T2, human 5-HT6 (h5-HT6) receptors (Homo sapiens, UniProt P50406); assay: Competition radioligand binding, h5-HT6 ([3H]LSD); conditions: membranes of HEK-293 cells, 1 hr RT
T2 construct: purchased Receptor Biology, Inc. (Beltsville, Md.); host or cells: HEK-293 cells

[3] = biological target: human D2S dopamine (hD2S-DA) receptors (Homo sapiens, UniProt P14416); assay: Competition radioligand binding, hD2s DA ([3H]Spiperone)
Protocol: (§1) Cell pellets were homogenized in approximately 50 mL of homogenization buffer (buffer A) containing: 50 mM Tris (pH 7.4), 2 mM EGTA, 0.32 M sucrose, 10 μM PMSF, 1 μg/mL leupeptin, 5 μg/mL Pepstatin A, and 5 μg/mL aprotinin using an UltraTurax homogenizer (Tekmar Company, Cincinnati, Ohio) at 80% maximum setting three times for 10 sec. Cell pellets were centrifuged at 4° C. at 1,500×g for 10 min in a Beckman GS-6R centrifuge. Pellets were resuspended in buffer A, homogenized and centrifuged as described above. Pooled supernatants were transferred to centrifuge bottles and centrifuged at 4° C. at 20,000×g for 30 min in a Beckman J2-HS centrifuge. Cell pellets were resuspended in buffer A and were centrifuged at 4° C. at 20,000×g for 30 min. Cell pellets were resuspended in buffer A and stored at −70° C. in aliquots of 2.5 mg/mL total membrane protein. Total membrane protein was assessed utilizing a BCA kit (Pierce; Rockford, Ill.).
(§2) Filters were washed three times with ice-cold phosphate-buffered saline (PBS) wash buffer containing 50 mM NaPO4 (pH 7.4), 0.9% NaCl, 2 mM MgCl2 and 0.02% NaN3. The filters were then counted using liquid scintillation in a Packard Topcount scintillation counter.
(§3) Data Analysis: Radioligand binding experiments were analyzed with Prism™ (GraphPad, San Diego, Calif.), a computer graphics and statistics program. IC50 values and Hill slopes for compounds were generated by nonlinear regression using Prism™.

human 5-HT2a receptors = human 5-HT2a receptors (Homo sapiens, UniProt P28223); assay: Competition radioligand binding, h5-HT2a ([3H]Ketanserin)
Protocol: The 5-HT receptor binding properties of the compounds are identified by competitive radioligand binding assays wherein membranes prepared from transfected cells expressing the 5-HT receptor subtype of interest. “Binding constants” refers herein to Ki values measured by inhibition of the binding of radiolabelled ligands that are selective for the 5-HT receptor type being studied.
as §1, §2, §3

human 5-HT1a receptors = biological target: T3, human 5-HT1a receptors (Homo sapiens, UniProt P08908); assay: Competition radioligand binding, h5-HT1a ([3H]5-CT); conditions: membranes of CHO K1 cells, 1 hr RT
T3 construct: expressed in transfected cells; host or cells: CHO K1 cells
T3 sequence (P08908 1-422): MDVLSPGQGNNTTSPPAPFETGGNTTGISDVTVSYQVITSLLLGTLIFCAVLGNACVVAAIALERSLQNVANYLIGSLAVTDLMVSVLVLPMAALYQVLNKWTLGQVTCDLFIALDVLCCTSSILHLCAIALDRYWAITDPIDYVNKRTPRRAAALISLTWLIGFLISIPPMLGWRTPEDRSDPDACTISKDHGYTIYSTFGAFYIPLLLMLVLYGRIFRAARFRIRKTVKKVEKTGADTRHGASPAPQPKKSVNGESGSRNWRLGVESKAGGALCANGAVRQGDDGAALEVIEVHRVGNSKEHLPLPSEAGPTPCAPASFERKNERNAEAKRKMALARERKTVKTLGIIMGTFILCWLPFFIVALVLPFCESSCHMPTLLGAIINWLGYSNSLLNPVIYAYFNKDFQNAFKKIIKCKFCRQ

[4] = read-out: Ki (nM) D2, membranes of A9 L cells, [3H]Spiperone, 2 hr RT
[5] = read-out: Ki (nM) 5-HT2A, membranes of CHO K1 cells, [3H]Ketanserin, 1 hr 37° C.

T2 sequence (P50406 whole entry): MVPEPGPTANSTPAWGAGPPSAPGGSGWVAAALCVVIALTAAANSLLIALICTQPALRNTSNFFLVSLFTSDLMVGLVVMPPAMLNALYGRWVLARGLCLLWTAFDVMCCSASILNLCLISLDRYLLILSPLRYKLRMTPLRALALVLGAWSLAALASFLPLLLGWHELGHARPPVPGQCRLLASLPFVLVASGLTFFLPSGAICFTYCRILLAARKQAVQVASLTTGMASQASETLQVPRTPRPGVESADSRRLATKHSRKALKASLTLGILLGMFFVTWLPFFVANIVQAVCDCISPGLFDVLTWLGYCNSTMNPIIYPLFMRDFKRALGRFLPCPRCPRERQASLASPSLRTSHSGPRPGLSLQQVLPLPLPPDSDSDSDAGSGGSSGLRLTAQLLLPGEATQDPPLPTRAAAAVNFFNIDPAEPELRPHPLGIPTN
T1 sequence (P34969 1-432 limits assumed): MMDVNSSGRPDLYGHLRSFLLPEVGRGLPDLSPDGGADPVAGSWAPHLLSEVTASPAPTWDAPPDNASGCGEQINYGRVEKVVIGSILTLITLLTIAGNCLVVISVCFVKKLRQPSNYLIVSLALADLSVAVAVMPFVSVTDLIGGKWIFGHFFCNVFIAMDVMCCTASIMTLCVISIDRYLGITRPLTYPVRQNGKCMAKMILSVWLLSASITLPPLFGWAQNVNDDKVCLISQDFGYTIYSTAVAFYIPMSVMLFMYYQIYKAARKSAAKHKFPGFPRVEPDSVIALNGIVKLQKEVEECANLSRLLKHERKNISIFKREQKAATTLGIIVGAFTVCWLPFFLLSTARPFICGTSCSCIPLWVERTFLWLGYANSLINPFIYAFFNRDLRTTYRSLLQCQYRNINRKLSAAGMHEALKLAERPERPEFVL
human 5-HT2a receptors, sequence (P28223 whole entry): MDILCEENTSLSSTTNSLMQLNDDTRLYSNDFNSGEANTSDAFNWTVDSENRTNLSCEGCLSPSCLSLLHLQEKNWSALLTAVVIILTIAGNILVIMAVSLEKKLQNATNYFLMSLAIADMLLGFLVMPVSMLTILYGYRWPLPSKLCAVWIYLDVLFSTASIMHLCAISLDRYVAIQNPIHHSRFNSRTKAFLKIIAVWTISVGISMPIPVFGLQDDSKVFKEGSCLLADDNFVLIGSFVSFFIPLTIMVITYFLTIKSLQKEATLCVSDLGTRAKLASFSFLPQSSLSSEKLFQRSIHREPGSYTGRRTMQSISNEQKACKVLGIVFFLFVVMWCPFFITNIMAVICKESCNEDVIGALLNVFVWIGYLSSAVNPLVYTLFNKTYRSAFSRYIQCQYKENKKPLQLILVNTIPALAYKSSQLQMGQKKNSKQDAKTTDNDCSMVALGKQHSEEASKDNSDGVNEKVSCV
human D2S dopamine (hD2S-DA) receptors, sequence (P14416 1-414 isoform P14416-2): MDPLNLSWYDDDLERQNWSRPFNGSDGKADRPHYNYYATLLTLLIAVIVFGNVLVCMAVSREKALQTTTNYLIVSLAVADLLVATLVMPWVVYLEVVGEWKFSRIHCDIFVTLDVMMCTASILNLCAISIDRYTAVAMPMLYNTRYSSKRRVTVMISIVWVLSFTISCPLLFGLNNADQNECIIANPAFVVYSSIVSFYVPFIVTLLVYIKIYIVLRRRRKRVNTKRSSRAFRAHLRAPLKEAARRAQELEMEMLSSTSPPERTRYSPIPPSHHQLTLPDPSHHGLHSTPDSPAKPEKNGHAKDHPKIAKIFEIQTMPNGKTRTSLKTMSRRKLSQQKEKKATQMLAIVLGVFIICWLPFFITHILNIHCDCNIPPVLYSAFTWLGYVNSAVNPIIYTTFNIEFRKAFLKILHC

Row | Compound | Ki [1] | Ki [2] | Ki [3] | Ki (human 5-HT2a receptors) | Ki (human 5-HT1a receptors) | Ki [3, 4] | Ki (human 5-HT2a receptors; [5])
1 | CN1CCCC1CCN(Cc1cccc(O)c1)Cc1cccc(O)c1 (racemic) [Example 3] | 49 nM | 2640 nM | > 2500 nM | 2000 nM | – | – | –
2 | Cc1ccc(CN(CCC2CCCN2C)Cc2ccc(C)cc2)cc1 (racemic) [Example 4] | 9.9 nM | 41 nM | 110 nM | 20 nM | – | – | –
3 | CN1CCCC1CCN(Cc1ccc(Cl)cc1)Cc1ccc(Cl)cc1 (racemic) [Example 5] | 4.7 nM | 42 nM | – | 39 nM | 540 nM | – | –
4 | CN1CCCC1CCN(CCc1ccccc1)CCc1ccccc1 (racemic) [Example 8] | 3200 nM | – | – | – | – | – | –
5 | CN1CCCC1CCN(Cc1ccccc1)Cc1ccccc1 (racemic) [Example 12] | 24 nM | 74 nM | 360 nM | – | – | – | –
6 | CN1CCC[C@H]1CCN(Cc1cccc(O)c1)Cc1cccc(O)c1 [Example 2, (S)-Di-(3-hydroxybenzyl)-2-aminoethyl-N-methylpyrrolidine] | 9.7 nM | 640 nM | – | – | 3500 nM | > 2500 nM | 500 nM
7 | Cc1ccc(CN(CC[C@H]2CCCN2C)Cc2ccc(C)cc2)cc1 [Example 6] | 80 nM | 53 nM | 200 nM | 29 nM | 1780 nM | – | –
8 | Cc1ccc(CN(CC[C@@H]2CCCN2C)Cc2ccc(C)cc2)cc1 [Example 7] | 2.1 nM | 63 nM | 221 nM | 17 nM | 2850 nM | – | –
9 | CN1CCC[C@H]1CCN(Cc1cccc(C(N)=O)c1)Cc1cccc(C(N)=O)c1 [Example 9] | 5100 nM | – | – | – | – | – | –
10 | CN1CCC[C@@H]1CCN(Cc1cccc(O)c1)Cc1cccc(O)c1 [Example 10] | 1000 nM | – | – | – | – | – | –
11 | CN1CCC[C@H]1CCN(Cc1ccc(O)cc1)Cc1cccc(O)c1 [Example 20] | 8.8 nM | 880 nM | > 2500 nM | 540 nM | > 4000 nM | – | –
12 | Cc1ccc(CN(CC[C@@H]2CCCN2C)Cc2ccccc2)cc1 [Example 22] | 8.3 nM | 39 nM | 220 nM | 44 nM | > 4000 nM | – | –
13 | CN1CCCC1CCN(Cc1ccccc1)Cc1c(Cl)cccc1Cl (stereo not shown) [Example 23] | 28 nM | 47 nM | 160 nM | 16 nM | > 4000 nM | – | –
14 | Cc1ccc(C)c(CN(CCC2CCCN2C)Cc2ccccc2)c1 (stereo not shown) [Example 24] | 31 nM | 72 nM | 410 nM | 20 nM | > 4000 nM | – | –
15 | CN1CCCC1CCN(Cc1ccccc1)Cc1cccc2ccccc12 (stereo not shown) [Example 25] | 45 nM | 99 nM | 570 nM | 87 nM | > 4000 nM | – | –
16 | CN1CCCC1CCN(Cc1ccccc1)Cc1ccc(F)cc1 (stereo not shown) [Example 26] | 18 nM | 20 nM | 400 nM | – | – | – | –
17 | CSc1ccc(CN(CCC2CCCN2C)Cc2ccccc2)cc1 (stereo not shown) [Example 27] | 150 nM | – | – | – | – | – | –
18 | CCc1ccc(CN(CCC2CCCN2C)Cc2ccccc2)cc1 (stereo not shown) [Example 28] | 19 nM | 91 nM | 270 nM | 73 nM | > 4000 nM | – | –
19 | CN1CCCC1CCN(Cc1ccccc1)Cc1cccc(O)c1 (stereo not shown) [Example 29] | 23 nM | 33 nM | 1010 nM | 69 nM | > 4000 nM | – | –
20 | Cc1cccc(CN(CCC2CCCN2C)Cc2ccccc2)c1 (stereo not shown) [Example 30] | 20 nM | 53 nM | 660 nM | 60 nM | > 4000 nM | – | –
21 | CN1CCCC1CCN(Cc1ccccc1)Cc1ccc(C(C)(C)C)cc1 (stereo not shown) [Example 31] | 66 nM | 45 nM | 1210 nM | 130 nM | – | – | –
22 | CC(C)c1ccc(CN(CCC2CCCN2C)Cc2ccccc2)cc1 (stereo not shown) [Example 32] | 36 nM | 71 nM | 850 nM | 11 nM | – | – | –
23 | COc1cccc(CN(CCC2CCCN2C)Cc2ccccc2)c1 (stereo not shown) [Example 33] | 56 nM | 35 nM | 780 nM | 51 nM | > 4000 nM | – | –

Row | Compound | Ki [1] | Ki [2] | Ki [3] | Ki (human 5-HT2a receptors) | Ki (human 5-HT1a receptors) | Ki [3, 4] | Ki (human 5-HT2a receptors; [5])
24 | CN1CCC[C@H]1CCN(Cc1cccc(O)c1)Cc1ccc2ccccc2c1 [Example 34] | 8.6 nM | 315 nM | 1750 nM | 61 nM | 825 nM | – | –
25 | Cc1cc(CN(CC[C@@H]2CCCN2C)Cc2cccc(O)c2)cc(C)c1O [Example 35] | 17 nM | 2710 nM | > 2500 nM | 3470 nM | > 4000 nM | – | –
26 | COc1ccc(CN(CC[C@@H]2CCCN2C)Cc2cccc(O)c2)cc1 [Example 36] | 49 nM | 1580 nM | 2530 nM | 200 nM | > 4000 nM | – | –
27 | CN1CCC[C@H]1CCN(Cc1ccc(C(C)(C)C)cc1)Cc1cccc(O)c1 [Example 37] | 66 nM | 375 nM | 2300 nM | 160 nM | > 4000 nM | – | –
28 | CN1CCC[C@H]1CCN(CCc1ccccc1)Cc1ccc(Cl)cc1 [Example 38] | 200 nM | – | – | – | – | – | –
29 | CN1CCC[C@H]1CCN(Cc1ccc(Cl)cc1)Cc1ccc(O)cc1Cl [Example 39] | 0.91 nM | 49 nM | 420 nM | 85 nM | 3920 nM | – | –
30 | CSc1ccc(CN(CC[C@@H]2CCCN2C)Cc2ccc(Cl)cc2)cc1 [Example 40] | 6.5 nM | 132 nM | 1110 nM | 23 nM | > 4000 nM | – | –
31 | COc1cccc(CN(CC[C@@H]2CCCN2C)Cc2ccc(Cl)cc2)c1 [Example 41] | 6.6 nM | 83 nM | 1480 nM | 39 nM | > 4000 nM | – | –
32 | Cc1cc(CN(CC[C@@H]2CCCN2C)Cc2ccc(Cl)cc2)oc1C [Example 42] | 21 nM | 54 nM | > 2500 nM | 88 nM | > 4000 nM | – | –
33 | CN1CCC[C@H]1CCN(Cc1ccc(Cl)cc1)CC1CC=CCC1 (stereo partly shown) [Example 43] | 180 nM | – | – | – | – | – | –
34 | CN1CCC[C@H]1CCN(Cc1ccc(Cl)cc1)Cc1ccccc1Cl [Example 44] | 260 nM | – | – | – | – | – | –
35 | CN1CCC[C@H]1CCN(Cc1ccc(Cl)cc1)Cc1ccc2c(c1)Cc1ccccc1-2 [Example 45] | 12 nM | 38 nM | 250 nM | 27 nM | > 4000 nM | – | –
36 | CC(C)c1ccc(CN(CC[C@@H]2CCCN2C)Cc2ccc(Cl)cc2)cc1 [Example 46] | 80 nM | 350 nM | 1110 nM | 42 nM | 3850 nM | – | –
37 | CN1CCC[C@H]1CCN(Cc1ccc(Cl)cc1)Cc1ccc(O)c(Cl)c1 [Example 47] | 2.7 nM | 110 nM | 1010 nM | 180 nM | > 4000 nM | – | –
38 | Cc1cc(CN(CC[C@@H]2CCCN2C)Cc2ccc(Cl)cc2)cc(C)c1O [Example 48] | 4.2 nM | 71 nM | > 2500 nM | 233 nM | 3070 nM | – | –
39 | CN1CCC[C@H]1CCN(Cc1ccc(O)cc1)Cc1ccc(Cl)cc1 [Example 49] | 1.9 nM | 177 nM | 1310 nM | 148 nM | > 4000 nM | – | –
40 | COc1cc(CN(CC[C@@H]2CCCN2C)Cc2ccc(Cl)cc2)ccc1O [Example 50] | 3.2 nM | 280 nM | > 2500 nM | 180 nM | > 4000 nM | – | –
41 | CN1CCC[C@H]1CCN(Cc1ccc(Cl)cc1)Cc1ccc(O)c([N+](=O)[O-])c1 [Example 51] | 200 nM | – | – | – | – | – | –
42 | Cc1c(CN(CC[C@@H]2CCCN2C)Cc2ccc(Cl)cc2)sc2ccccc12 [Example 52] | 27 nM | 310 nM | 1110 nM | 76 nM | > 4000 nM | – | –
43 | C[C@H](CN(CC[C@@H]1CCCN1C)Cc1ccc(Cl)cc1)c1ccccc1 [Example 53] | 161 nM | – | – | – | – | – | –
44 | CCN1CCC[C@H]1CCN(Cc1ccc(C)cc1)Cc1ccc(C)cc1 [Example 54, (S)-Di-(4-methylbenzyl)aminoethyl-N-ethylpyrrolidine] | 63 nM | 300 nM | – | – | 610 nM | 380 nM | 56 nM
45 | CN1CCC[C@H]1CN(Cc1ccccc1)Cc1ccccc1 [Example 55, (S)-Di-(benzyl)-2-aminomethyl-N-methylpyrrolidine] | 170 nM | – | – | – | – | – | –
46 | (S)-(3-Hydroxybenzyl)(4-chlorobenzyl)-2-aminoethyl-N-methylpyrrolidine [Example 19] | 2.7 nM | 210 nM | – | – | > 4000 nM | 1580 nM | 74 nM
